Measured values as given in US5414001A, “Antineoplastic pyrrolo[4,3,2-de]quinolin-8(1H)-ones” (American Cyanamid Company, priority 1993, dated 1995).
Values after ≈ are worked out from the molar mass of the structure shown. Values joined by “and” are separate entries in the source; they are usually repeats but may differ in a detail not shown here. Identical values can stand only once. Counter-ions that a name gives are not always drawn. Like-named read-outs stand apart in the source and are kept apart here.

Tests used:
[1] = test system: panel of >20 human tumor cell lines; assay: In vitro tumor panel evaluation, Sulforhodamine B (SRB) cytotoxicity assay; type: cell-based; details: for IC50: Homo sapiens
[2] = test system: DDP (Cisplatin resistant ovarian carcinoma cell line) / S (A2780); assay: SRB cytotoxicity ratio DDP/S (cisplatin resistance); type: cell-based, human
MIP / SW620 = assay: SRB cytotoxicity ratio MIP/SW620 (MDR, P-glycoprotein resistance); type: cell-based, human; details: 2880 min
HCT15 / SKBR3 = assay: SRB cytotoxicity ratio HCT15/SKBR3 (topoisomerase resistance); type: cell-based, human; details: 2880 min
[3] = test system: Ovcar3 human ovarian carcinoma; design: species or system human tumor in Balb/C nu/nu athymic mice; details: in vivo
CaCo2 / CX1 [4] = details: human, Caco-2, 48 h
Method: (§4) The cytotoxic activity of the pyrrolo[4,3,2-de]quinolin-8(1H)-ones against a panel of >20 human tumor cell lines is determined using the Sulforhodamine B protein dye-binding colorimetric cytotoxicity assay (SRB) described by Skehan et al. (Journal National Cancer Institute 82:1107-1112, 1990), as modified by Monks et al., (Journal National Cancer Institute 83: 757-766, 1991). […] Positive controls (i.e., etoposide) are included in every experiment. Treatments are for 48 hours, after which cells are fixed in 10% trichloroacetic acid (10% final concentration), washed five times with deionized water and stained with SRB solution (0.4% in glacial acetic acid). Protein-bound stain is solubilized with 0.1 ml tris buffer and the adsorbance values are recorded with a microplate reader. Duplicate plates of cells are fixed with trichloroacetic acid at the time of drug addition to establish To values, as described by Monks et al. (JNCl, 83: 757-766, 1991). The effect of drug treatments over the five-long range of concentrations is calculated using the formula, T--To/C--To, to determine the IC50 values.
(§5) 3) The ratio values for DDP/S; CaCo2/CX1; MIP/SW620, and; HCT15/SKBR3 refer to the IC50 value for resistant cell lines included in the tumor cell panel, divided by the IC50 value for corresponding drug sensitive cell lines. For example, DDP is a Cisplatin resistant ovarian carcinoma cell line, and S is the corresponding parent drug sensitive ovarian carcinoma cell line (A2780). […] CaCo2 is a slow growing non P-glycoprotein multidrug resistant colon carcinoma cell line. MIP is a colon carcinoma cell line that expresses P-glycoprotein and is multidrug resistant; SW620 is a drug sensitive colon carcinoma cell line. HCT15 is a colon carcinoma cell line that is resistant to topoisomerase inhibitors and SKBR3 is a breast carcinoma that is very sensitive to topoisomerase inhibitors.

CaCo2 / CX1 [5] = assay: SRB cytotoxicity ratio CaCo2/CX1 (growth kinetics); details: IC50 resistant / IC50 sensitive cell line, 2880 min
Method: as §4, §5

P388 murine leukemia = test system: P388 murine leukemia; design: species or system murine (mice); details: mouse, in vivo
BR513 = type: cell-based
S. aureus 375 = assay: Antibacterial agar diffusion assay; type: cell-based; details: 250 microgram/ml; H = hazy zones
S. aureus meth r 310 = assay: Antibacterial agar diffusion assay; type: cell-based; details: H = hazy zones
E. faecium 379 = assay: Antibacterial agar diffusion assay; type: cell-based; details: H = hazy zones
Method: (§1) One hundred fifty milliliters of agar medium are seeded with 1 ml of diluted culture and aseptically poured into 9 inch×9 inch Nunc bioassay plates. The twenty-five microliters of the test sample dissolved in DMSO are placed in 5.5 mmwells that are cut into agar layer which has been pre-seeded with the test bacterial strains. The plates are incubated at 37° C. for 18-24 hours. Zones of inhibition are recorded.
(§2) ALL SAMPLES IN 20% DMSO
(§3) AGAR DIFFUSION ASSAY 25 microliter sample in 5.5 mm well

S. aureus cipro r 400 = assay: Antibacterial agar diffusion assay; type: cell-based; details: 64 microgram/ml; H = hazy zones
Method: as §1, §2, §3

E. coli 300 = assay: Antibacterial agar diffusion assay; type: cell-based; design: concentration or dose not given beside the values; details: trifluoroacetate
[6] = human, ddp/s ovarian carcinoma cells, 2880 min
[7] = Mean IC50 value for all 20 cell lines, 48 hours, read-out: AVG IC50
[8] = least sensitive cell line, 48 hours, read-out: MAX IC50
[9] = most sensitive cell line, 48 hours, read-out: MIN IC50
[10] = IC50 resistant / IC50 sensitive cell line, cisplatin resistance, 2880 min
[11] = IC50 resistant / IC50 sensitive cell line, MDR (pglycoprotein) resistance
[12] = IC50 resistant / IC50 sensitive cell line, topoisomerase resistance

CaCO2/CX1 IC50 ratio (CaCo2 / CX1 [4])	Compound	IC50 [1, 7] [µg/mL]	IC50 [1, 8] [µg/mL]	IC50 [1, 9] [µg/mL]	DDP/S IC50 ratio [2, 10]	MIP/SW620 IC50 ratio (MIP / SW620; [11])	HCT15/SKBR3 IC50 ratio (HCT15 / SKBR3; [12])	other results
	Cn1cc2ccnc3c2c1C(=O)C(N)=C3.O=C(O)C(F)(F)F [Example 2, 7-amino-1-methyl-pyrrolo[4,3,2-de]quinolin-8(1H)-one trifluoroacetate]	18	25.1	2.03	1.0	0.9	6.7	CaCO2/CX1 IC50 ratio (CaCo2 / CX1 [5]): 0.6
	C[N+]1=C2C=C(N)C(=O)c3[nH]cc(c32)CC1 [Example 3, 7-amino-1,3,4,8-tetrahydro-5-methyl-8-oxo-pyrrolo[4,3,2-de]quinolinium trifluoroacetate]					1.1	1.9	IC50 ([1]; 48 h, read-out: AVG IC50): 1.7 µg/mL; IC50 ([1]; 48 h, read-out: MAX IC50): 10 µg/mL; IC50 ([1]; 48 h, read-out: MIN IC50): 0.06 µg/mL; Ovcar3 Min T/C % [3]: 37%; P388 ILS % (P388 murine leukemia): 18%; BIA BR513 (BR513; 1000 microgram/ml, T = toxic): 8T; CaCO2/CX1 IC50 ratio (CaCo2 / CX1 [5]): 0.3
	Cn1cc2c3c1C(=O)C(N/C=C/c1ccc(O)cc1)=CC3=NCC2.O=C(O)C(F)(F)F [Example 5, (E)-7-[[2-(4-hydroxyphenyl)ethenyl]amino]-1-methyl-3,4-dihydropyrrolo[4,3,2-de]quinolin-8(1H)-one trifluoroacetate]	2.3	3.44	1.23	1.1	1.1	0.3	CaCO2/CX1 IC50 ratio (CaCo2 / CX1 [5]): 1.5
3.6	CNC1=CC2=[N+](C)CCc3cn(C)c(c32)C1=O [Example 30, 1,3,4,8-Tetrahydro-1,5-dimethyl-7-(methylamino)-8-oxo-pyrrolo[4,3,2-de]quinolinium trifluoroacetate]	4.5	25.9	0.41	1.1	65.8	12.7	
0.6	C=CC[N+]1=C2C=C(N)C(=O)c3c2c(cn3C)CC1 [Example 31, 7-Amino-1,3,4,8-tetrahydro-1-methyl-8-oxo-5-(2-propenyl)[4,3,2-de]quinolinium trifluoroacetate]	1.7	2.59	0.34	1.2	8.0	2.7	
1.3	CNC1=CC2=[N+](C)CCc3c[nH]c(c32)C1=O [Example 35, 1,3,4,8-Tetrahydro-5-methyl-7-(methylamino)-8-oxo-pyrrolo[4,3,2-de]quinolinium trifluoroacetate]	5.7	24.4	1.2	1.0	20.3	9.1	
4.8	CCCCCCCCN(CCCCCCCC)C1=CC2=[N+](C)CCc3c[nH]c(c32)C1=O [Example 39, 1,3,4,8-Tetrahydro-5-methyl-7-(dioctylamino)-8-oxo-pyrrolo[4,3,2-de]quinolinium trifluoroacetate]	0.8	2.71	0.19	1.7	9.0	122.0	
19.8	C[N+]1=C2C=C(NCc3ccoc3)C(=O)c3[nH]cc(c32)CC1.O=C([O-])C(F)(F)F [Example 43, 7-[(3-Furanylmethyl)amino]-1,3,4,8-tetrahydro-5-methyl-8-oxo-pyrrolo[4,3,2-de]quinolinium trifluoroacetate]				1.6	90.8	78.5	AVG IC50 ([1]; Mean IC50 value for all 20 cell lines, 48 hours): 6.4 µg/mL; MAX IC50 ([1]; least sensitive cell line, 48 hours): 36.3 µg/mL; MIN IC50 ([1]; most sensitive cell line, 48 hours): 0.27 µg/mL
32.0	C[N+]1=C2C=C(NCc3cccc4ccccc34)C(=O)c3[nH]cc(c32)CC1 [Example 44, 1,3,4,8-Tetrahydro-5-methyl-7-[(1-naphthalenylmethyl)amino]-8-oxo-pyrrolo[4,3,2-de]quinolinium trifluoroacetate]	5.6	27.1	0.02	11.3	67.8	1140.0	
5.4	C[N+]1=C2C=C(NCc3ccccc3)C(=O)c3[nH]cc(c32)CC1 [Example 46, 1,3,4,8-Tetrahydro-5-methyl-8-oxo-7-[(phenylmethyl)amino]-pyrrolo[4,3,2-de]quinolinium trifluoroacetate]	7	22.3	0.2	1.6	8.3	113.0	
1.0	C[N+]1=C2C=C(NCc3ccc(O)cc3)C(=O)c3[nH]cc(c32)CC1 [Example 49, 1,3,4,8-Tetrahydro-7-[[(4-hydroxyphenyl)methyl]amino]-5-methyl-8-oxo-pyrrolo[4,3,2-de]quinolin-8 (1H)-one trifluoroacetate]	3.3	13.9	0.92	1.1	4.2	15.4	
0.8	CN1CCc2cn(C)c3c2C1=CC(=O)C3=O [Example 52, 1,3,4,5-Tetrahydro-1,5-dimethyl-pyrrolo[4,3,2-de]quinoline-7,8-dione]	25 (≈ 116 µM)	50 (≈ 231 µM)	12.3 (≈ 56.9 µM)	1.1	1.5	2.6	
1.4	C[N+]1=C2C=C(N)C(=O)c3c2c(cn3CCC#N)CC1 [Example 56, 7-Amino-1-(2-cyanoethyl)-1,3,4,8-tetrahydro-5-methyl-8-oxo-pyrrolo[4,3,2-de]quinolinium trifluoroacetate]	4.7	21.5	1.56	1.0	2.0	3.1	
34.0	C[N+]1=C2C=C(NCC(O)c3ccccc3)C(=O)c3[nH]cc(c32)CC1 (centres unmarked) [Example 58, 1,3,4,8-Tetrahydro-7-[2-hydroxy-2-phenylethyl)amino]-5-methyl-8-oxo-pyrrolo[4,3,2-de]quinolinium trifluoroacetate]	11	50	0.22	1.5	167.0	227.0	
	CC[C@]1(O)C[C@H]2CN(CCc3c([nH]c4ccccc34)[C@@](C(=O)OC)(c3cc4c(cc3OC)N(C=O)[C@H]3[C@@](O)(C(=O)OC)[C@H](OC(C)=O)[C@]5(CC)C=CCN6CC[C@]43[C@@H]65)C2)C1 [Vincristine, reference compound]							Ovcar3 Min T/C % [3]: 53%; P388 ILS % (P388 murine leukemia): > 91%

Compound	CaCO2/CX1 IC50 ratio (CaCo2 / CX1 [4])	IC50 [1, 7] [µg/mL]	IC50 [1, 8] [µg/mL]	IC50 [1, 9] [µg/mL]	DDP/S IC50 ratio [2, 10]	MIP/SW620 IC50 ratio (MIP / SW620; [11])	HCT15/SKBR3 IC50 ratio (HCT15 / SKBR3; [12])	other results
COc1cc([C@@H]2c3cc4c(cc3[C@@H](O[C@@H]3O[C@@H]5CO[C@@H](C)O[C@H]5[C@H](O)[C@H]3O)[C@H]3COC(=O)[C@H]23)OCO4)cc(OC)c1O [Etoposide, etoposide, reference compound]	4.2							IC50 ([1]; 48 h, read-out: AVG IC50): 8.7 µg/mL (≈ 14.8 µM); IC50 ([1]; 48 h, read-out: MAX IC50): 27.9 µg/mL (≈ 47.4 µM); IC50 ([1]; 48 h, read-out: MIN IC50): 0.12 µg/mL (≈ 0.204 µM); cross resistance in the cisplatin resistant cell line DDP [2]: cross resistant; DDP/S IC50 ratio [2, 6]: 53.0; IC50 value of DDP higher than the parent cell line [2, 6]: 53 fold; MIP/SW620 IC50 ratio (MIP / SW620; human, mip/sw620 cells): 1.9; HCT15/SKBR3 IC50 ratio (HCT15 / SKBR3; human, hct15/skbr3 cells): 22.3; HCT15 more resistant than SKBR3 (HCT15 / SKBR3; human, hct15/skbr3 cells): 22 fold; Ovcar3 Min T/C % [3]: 62%
O=C1C(NC2Cc3cc(Br)c(O)cc3S2)=CC2=NCCc3c[nH]c1c32 (centres unmarked) [Example 6, trifluoroacetate]	6.3				1.8			more potent than the reference topoisomerase inhibitor, etoposide [1]: 1 log; MIP/SW620 IC50 ratio (MIP / SW620; human, mip/sw620 cells): 5.1; HCT15/SKBR3 IC50 ratio (HCT15 / SKBR3; human, hct15/skbr3 cells): 3.5; ZONES OF INHIBITION (S. aureus 375): 7H; ZONES OF INHIBITION (S. aureus meth r 310; 64 microgram/ml): 8 MM; ZONES OF INHIBITION (S. aureus meth r 310; 250 microgram/ml): 9 MM; ZONES OF INHIBITION (S. aureus meth r 310; 1000 microgram/ml): 10 MM; ZONES OF INHIBITION (E. faecium 379; 64 microgram/ml): 9H; ZONES OF INHIBITION (E. faecium 379; 250 microgram/ml): 11H; ZONES OF INHIBITION (E. faecium 379; 1000 microgram/ml): 12H; ZONES OF INHIBITION (S. aureus cipro r 400): 11H; ZONES OF INHIBITION (E. coli 300): 12 and 11 and 9; BIA BR513 (BR513): 8T
